Source: the NIST ThermoML archive (doi:10.1016/j.jct.2017.03.024)

Conditions: Liquid, Closed cell (Static) method

O [water]
Conditions	vapor or sublimation pressure [kPa]
298 K	3.35
313 K	7.4
323 K	12.12
328.2 K	15.07
333 K	18.99
337.5 K	23.33
